Results on 3 molecules are retold here after US20030133962A1, “Pest control agent/pf 1022-221” (priority 1999, published 2003).

One assay concerns silkworms. As to conditions: known from literature (Kanaoka et al. 1979; JP 05 271 013); cited from earlier work.
Assay [1] deals with larvae of the mustard beetle (Phaedon cochleariae). The assay can be described thus: Phaedon larvae test. It counts as in vivo. The following applies: active compound concentration 1000 ppm; dipped cabbage leaves (Brassica oleracea). On the procedure: (§1) Solvent: 3 parts by weight of dimethylformamide
(§2) Emulsifier: 1 part by weight of alkylaryl polyglycol ether
(§3) To produce a suitable preparation of active compound, 1 part by weight of active compound is mixed with the stated amounts of solvent and emulsifier, and the concentrate is diluted with emulsifier-containing water to the desired concentration.
Cabbage leaves (Brassica oleracea) are treated by being dipped into the preparation of active compound of the desired concentration and populated with larvae of the mustard beetle (Phaedon cochleariae) while the leaves are still moist.
After the desired period of time, the kill in % is determined. 100% means that all beetle larvae have been killed; 0% means that none of the beetle larvae have been killed.

Assay [2] concerns caterpillars of the diamond back moth (Plutella xylostella). The assay can be described thus: Plutella test/symptomatology study. Type of assay: in vivo. The following applies: 10 μg/larva; 1 μl acetone solution administered to caterpillars. On the procedure:
Plutella test/symptomatology study
To prepare an advantgeous preparation of active compound, 10 mg of active compound are mixed with 1 ml of solvent.
1 μl of the solution prepared in this manner is administered to caterpillars of the diamond back moth (Plutella xylostella).
After the desired period of time, the kill in % is determined 100% means that all caterpillars have been killed; 0% means that none of the caterpillars have been killed.

Assay [3] has as its system caterpillars of the army worm (Spodoptera frugiperda). The assay can be described thus: Spodoptera frugiperda test. It counts as in vivo. As to conditions: active compound concentration 1000 ppm; dipped cabbage leaves (Brassica oleracea). On the procedure:
Spodoptera frugiperda test
Solvent: 31 parts by weight of acetone
as §2, §3
Cabbage leaves (Brassica oleracea) are treated by being dipped into the preparation of active compound of the desired concentration and populated with caterpillars of the army worm (Spodoptera frugiperda) while the leaves are still moist.
After the desired period of time, the kill in % is determined. 100% means that all caterpillars have been killed; 0% means that none of the caterpillars have been killed.

The subject of a further assay is Meloidogyne incognita. The experiment in a line: Meloidogyne test. It counts as in vivo. As to conditions: active compound concentration 20 ppm; sand, lettuce seeds. Here is the method:
as §1, §2
To produce a suitable preparation of active compound, 1 part by weight of active compound is mixed with the stated amounts of solvent and emulsifier, and the concentrate is diluted with water to the desired concentration.
Vessels are filled with sand, a solution of the active compound, Meloidogyne incognita-egg larvae suspension and lettuce seeds. The lettuice seeds germinate, and the small plants develop. On the roots, galls are formed.
After the desired period of time, the nematicidal action is determined in % by the formation of galls. 100% means that no galls have been found; 0% means that the number of galls on the treated plants corresponds to that of the untreated control.

With `CC(C)C[C@H]1C(=O)O[C@H](Cc2ccccc2)C(=O)N(C)[C@@H](CC(C)C)C(=O)O[C@H](C)C(=O)N(C)[C@@H](CC(C)C)C(=O)O[C@H](Cc2ccccc2)C(=O)N(C)[C@@H](CC(C)C)C(=O)O[C@H](C)C(=O)N1C` [PF1022A], the “insecticidal activity against silkworms” value in the assay with silkworms is given as “insecticidal activity”.
For the molecule `CC(C)C[C@H]1C(=O)O[C@H](C(C)C)C(=O)N(C)[C@@H](CC(C)C)C(=O)O[C@H](C(C)C)C(=O)N(C)[C@@H](CC(C)C)C(=O)O[C@H](C(C)C)C(=O)N(C)[C@@H](CC(C)C)C(=O)O[C@H](C(C)C)C(=O)N1C` [bassianolide], in the assay on silkworms, the “insecticidal activity against silkworms” value was “insecticidal activity”.
For `CC(C)C[C@H]1C(=O)O[C@H](Cc2ccc(N3CCOCC3)cc2)C(=O)N(C)[C@@H](CC(C)C)C(=O)O[C@H](C)C(=O)N(C)[C@@H](CC(C)C)C(=O)O[C@H](Cc2ccc(N3CCOCC3)cc2)C(=O)N(C)[C@@H](CC(C)C)C(=O)O[C@H](C)C(=O)N1C` [compound of the formula (I)], the kill rate in assay [1], in assay [2] and in assay [3] was 100% each time. The “nematicidal action (effect) by the formation of galls” value in the assay on Meloidogyne incognita was determined as 98%.
